Data: ChEMBL document CHEMBL3046957, “Synthesis of new oxadiazole derivatives as anti-inflammatory, analgesic, and antimicrobial agents” (2013)

How the values were obtained:
Assay type in all cases: functional
Rattus norvegicus [1] = experiment: Anti-inflammatory activity in Wistar albino Rattus norvegicus (rat) assessed as inhibition of carrageenan-induced paw edema at 10 mg/kg, po administered 30 min prior to carrageenan challenge measured after 1.5 hr by plethysmometric analysis relative to untreated control
Rattus norvegicus [2] = experiment: Anti-inflammatory activity in Wistar albino Rattus norvegicus (rat) assessed as inhibition of carrageenan-induced paw edema at 10 mg/kg, po administered 30 min prior to carrageenan challenge measured after 3 hr by plethysmometric analysis relative to untreated control
Candida albicans [3] = experiment: Antifungal activity against Candida albicans assessed as growth inhibition at 50 ug/mL after 24 hr by cup-plate method; settings: read-out: DIZ
Staphylococcus aureus [4] = experiment: Antibacterial activity against Staphylococcus aureus assessed as growth inhibition at 100 ug/mL after 24 to 48 hr by cup-plate method; settings: read-out: DIZ
Aspergillus niger [5] = experiment: Antifungal activity against Aspergillus niger assessed as growth inhibition at 50 ug/mL after 24 hr by cup-plate method; settings: read-out: DIZ
Pseudomonas aeruginosa [6] = experiment: Antibacterial activity against Pseudomonas aeruginosa assessed as growth inhibition at 100 ug/mL after 24 to 48 hr by cup-plate method; settings: read-out: DIZ
Mus musculus [7] = experiment: Analgesic activity in Swiss albino Mus musculus (mouse) assessed as latency time of heat-induced paw licking/jumping behaviour at 10 mg/kg after 2 hr by Eddy's hot plate method (reference value: 4.86 +/- 0.18 secs)
Mus musculus [8] = experiment: Analgesic activity in Swiss albino Mus musculus (mouse) assessed as latency time of heat-induced paw licking/jumping behaviour at 10 mg/kg after 1 hr by Eddy's hot plate method (reference value: 4.74 +/- 0.21 secs)
Escherichia coli [9] = experiment: Antibacterial activity against Escherichia coli assessed as growth inhibition at 100 ug/mL after 24 to 48 hr by cup-plate method; settings: read-out: DIZ
Escherichia coli [10] = experiment: Antibacterial activity against Escherichia coli assessed as growth inhibition at 50 ug/mL after 24 to 48 hr by cup-plate method; settings: read-out: DIZ
Staphylococcus aureus [11] = experiment: Antibacterial activity against Staphylococcus aureus assessed as growth inhibition at 50 ug/mL after 24 to 48 hr by cup-plate method; settings: read-out: DIZ
Rattus norvegicus [12] = experiment: Anti-inflammatory activity in Wistar albino Rattus norvegicus (rat) assessed as inhibition of carrageenan-induced paw edema at 10 mg/kg, po administered 30 min prior to carrageenan challenge measured after 0.5 hr by plethysmometric analysis relative to untreated control
Mus musculus [13] = experiment: Analgesic activity in Swiss albino Mus musculus (mouse) assessed as latency time of heat-induced paw licking/jumping behaviour at 10 mg/kg after 4 hr by Eddy's hot plate method (reference value: 4.57 +/- 0.11 secs)
Mus musculus [14] = experiment: Analgesic activity in Swiss albino Mus musculus (mouse) assessed as latency time of heat-induced paw licking/jumping behaviour at 10 mg/kg after 0.5 hr by Eddy's hot plate method (reference value: 4.17 +/- 0.04 secs)
Aspergillus niger [15] = experiment: Antifungal activity against Aspergillus niger assessed as growth inhibition at 100 ug/mL after 24 hr by cup-plate method; settings: read-out: DIZ
Rattus norvegicus [16] = experiment: Anti-inflammatory activity in Wistar albino Rattus norvegicus (rat) assessed as inhibition of carrageenan-induced paw edema at 10 mg/kg, po administered 30 min prior to carrageenan challenge measured after 1 hr by plethysmometric analysis relative to untreated control
Rattus norvegicus [17] = experiment: Anti-inflammatory activity in Wistar albino Rattus norvegicus (rat) assessed as inhibition of carrageenan-induced paw edema at 10 mg/kg, po administered 30 min prior to carrageenan challenge measured after 2 hr by plethysmometric analysis relative to untreated control
Pseudomonas aeruginosa [18] = experiment: Antibacterial activity against Pseudomonas aeruginosa assessed as growth inhibition at 50 ug/mL after 24 to 48 hr by cup-plate method; settings: read-out: DIZ
Candida albicans [19] = experiment: Antifungal activity against Candida albicans assessed as growth inhibition at 100 ug/mL after 24 hr by cup-plate method; settings: read-out: DIZ
Bacillus subtilis [20] = experiment: Antibacterial activity against Bacillus subtilis assessed as growth inhibition at 50 ug/mL after 24 to 48 hr by cup-plate method; settings: read-out: DIZ
Bacillus subtilis [21] = experiment: Antibacterial activity against Bacillus subtilis assessed as growth inhibition at 100 ug/mL after 24 to 48 hr by cup-plate method; settings: read-out: DIZ

| Structure (SMILES) | inhibition in vivo at 10 mg/kg (Rattus norvegicus [1]) | inhibition in vivo at 10 mg/kg (Rattus norvegicus [2]) | zone of inhibition at 50 µg/mL (Candida albicans [3]) | zone of inhibition at 100 µg/mL (Staphylococcus aureus [4]) | zone of inhibition at 50 µg/mL (Aspergillus niger [5]) | zone of inhibition at 100 µg/mL (Pseudomonas aeruginosa [6]) | Time (Mus musculus [7]) | Time (Mus musculus [8]) | zone of inhibition at 100 µg/mL (Escherichia coli [9]) | zone of inhibition at 50 µg/mL (Escherichia coli [10]) | zone of inhibition at 50 µg/mL (Staphylococcus aureus [11]) | inhibition in vivo at 10 mg/kg (Rattus norvegicus [12]) | Time (Mus musculus [13]) | Time (Mus musculus [14]) | zone of inhibition at 100 µg/mL (Aspergillus niger [15]) | inhibition in vivo at 10 mg/kg (Rattus norvegicus [16]) | inhibition in vivo at 10 mg/kg (Rattus norvegicus [17]) | zone of inhibition at 50 µg/mL (Pseudomonas aeruginosa [18]) | zone of inhibition at 100 µg/mL (Candida albicans [19]) | zone of inhibition at 50 µg/mL (Bacillus subtilis [20]) | further results |
| --- | --- | --- | --- | --- | --- | --- | --- | --- | --- | --- | --- | --- | --- | --- | --- | --- | --- | --- | --- | --- | --- |
| COc1ccc(F)cc1-c1cccc(-c2nn(CCOS(=O)(=O)c3ccc(F)c(Cl)c3)c(=O)o2)c1 | 55% | 65% | 8 mm | 20 mm | 9 mm | 18 mm | 5.87 s | 4.69 s | 19 mm | 13 mm | 13 mm | 23% | 5.47 s | 4.62 s | 11 mm | 42% | 62% | 17 mm | 7 mm | 20 mm | zone of inhibition at 100 µg/mL (Bacillus subtilis [21]): 22 mm |
| CC(C)=CCN1CCC2(C)c3cc(O)ccc3CC1C2C (stereo not given) [PENTAZOCINE] |  |  |  |  |  |  | 8.06 s | 5.93 s |  |  |  |  | 7.85 s | 5.58 s |  |  |  |  |  |  |  |
| COc1ccc(F)cc1-c1cccc(-c2nn(CCCN)c(=O)o2)c1 | 55% | 77% | 5 mm | 17 mm | 10 mm | 21 mm | 6.84 s | 4.62 s | 16 mm | 15 mm | 12 mm | 29% | 5.49 s | 4.93 s | 12 mm | 43% | 66% | 17 mm | 12 mm | 12 mm | zone of inhibition at 100 µg/mL (Bacillus subtilis [21]): 19 mm |
| COc1ccc(F)cc1-c1cccc(-c2nn(CCOS(=O)(=O)c3ccc(F)cc3)c(=O)o2)c1 | 50% | 67% | 5 mm | 21 mm | 5 mm | 15 mm | 6.17 s | 5.01 s | 16 mm | 12 mm | 15 mm | 24% | 6.01 s | 4.91 s | 9 mm | 40% | 63% | 10 mm | 6 mm | 15 mm | zone of inhibition at 100 µg/mL (Bacillus subtilis [21]): 20 mm |
| COc1ccc(F)cc1-c1cccc(-c2nn(CCCN3C(=O)c4ccccc4C3=O)c(=O)o2)c1 | 49% | 64% | 6 mm | 16 mm | 7 mm | 19 mm | 4.01 s | 4.11 s | 18 mm | 15 mm | 10 mm | 19% | 4.01 s | 4.75 s | 10 mm | 30% | 61% | 13 mm | 10 mm | 13 mm | zone of inhibition at 100 µg/mL (Bacillus subtilis [21]): 18 mm |
| COC1=CC(=O)C[C@@H](C)[C@]12Oc1c(Cl)c(OC)cc(OC)c1C2=O [GRISEOFULVIN] |  |  | 20 mm |  | 22 mm |  |  |  |  |  |  |  |  |  | 37 mm |  |  |  | 35 mm |  |  |
| COc1ccc(F)cc1-c1cccc(-c2nn(CCCCF)c(=O)o2)c1 | 67% | 95% | 8 mm | 25 mm | 9 mm | 21 mm | 7.88 s | 5.24 s | 20 mm | 17 mm | 19 mm | 36% | 7.04 s | 5.55 s | 10 mm | 51% | 83% | 18 mm | 11 mm | 20 mm | zone of inhibition at 100 µg/mL (Bacillus subtilis [21]): 24 mm |
| COc1ccc(F)cc1-c1cccc(-c2nn(CCOS(=O)(=O)c3ccc(Cl)c(Cl)c3)c(=O)o2)c1 | 51% | 66% | 3 mm | 15 mm | 7 mm | 15 mm | 5.72 s | 4.48 s | 19 mm | 12 mm | 12 mm | 25% | 5.55 s | 4.95 s | 10 mm | 39% | 64% | 12 mm | 9 mm | 10 mm | zone of inhibition at 100 µg/mL (Bacillus subtilis [21]): 17 mm |
| CN[C@@H]1[C@H](O[C@H]2[C@H](O[C@H]3[C@H](O)[C@@H](O)[C@H](N=C(N)N)[C@@H](O)[C@@H]3N=C(N)N)O[C@@H](C)[C@]2(O)C=O)O[C@@H](CO)[C@H](O)[C@H]1O [STREPTOMYCIN] |  |  |  |  |  | 25 mm |  |  | 25 mm | 21 mm |  |  |  |  |  |  |  | 21 mm |  |  |  |
| COc1ccc(F)cc1-c1cccc(-c2nn(CCCC#N)c(=O)o2)c1 | 59% | 85% | 10 mm | 14 mm | 12 mm | 14 mm | 7.11 s | 5.64 s | 16 mm | 11 mm | 10 mm | 29% | 7.08 s | 5.71 s | 14 mm | 44% | 71% | 11 mm | 16 mm | 13 mm | zone of inhibition at 100 µg/mL (Bacillus subtilis [21]): 14 mm |
| COc1ccc(F)cc1-c1cccc(-c2nn(CCOC3CCCCO3)c(=O)o2)c1 (stereo not given) | 44% | 65% | 9 mm | 14 mm | 8 mm | 21 mm | 4.58 s | 4.21 s | 16 mm | 9 mm | 9 mm | 16% | 4.21 s | 4.81 s | 11 mm | 32% | 56% | 18 mm | 9 mm | 11 mm | zone of inhibition at 100 µg/mL (Bacillus subtilis [21]): 15 mm |
| O=C(O)Cc1ccccc1Nc1c(Cl)cccc1Cl [DICLOFENAC SODIUM] | 65% | 90% |  |  |  |  |  |  |  |  |  | 35% |  |  |  | 49% | 77% |  |  |  |  |
